From patent publication US20230235378A1, “LZHEIMER'S DISEASE-SPECIFIC ALTERATIONS OF PROTEIN KINASE C EPSILON (PKC-EPSILON PROTEIN LEVELS” (WEST VIRGINIA UNIVERSITY BOARD OF GOVERNORS ON BEHALF OF …, priority 2010, published 2023)

Key:
PKCγ = biological target: T1, PKCγ (Homo sapiens, UniProt P05129); assay: PKC isozyme specificity: PKCγ; format: biochemical; conditions: 50-100 μM; data not shown
T1 construct: purchased Calbiochem
Method: (§1) Protein Kinase C Assay. Rat hippocampal cells were cultured and scraped in 0.2 ml homogenization buffer (20 mM Tris-HCl, pH 7.4, 50 mM NaF, 1 μg/ml leupeptin, and 0.1 mM PMSF) and homogenized by sonication in a Marsonix micro-probe sonicator (5 sec, 10 W). To measure PKC, 10 μl of cell homogenate or purified PKC isozyme (purchased from Calbiochem) was incubated for 15 min at 37° C. in the presence of 10 μM histones, 4.89 mM CaCl2, 1.2 μg/μl phosphatidyl-L-serine, 0.18 μg/μl 1,2-dioctanoyl-sn-glycerol, 10 mM MgCl2, 20 mM HEPES (pH 7.4), 0.8 mM EDTA, 4 mM EGTA, 4% glycerol, 8 μg/ml aprotinin, 8 μg/ml leupeptin, and 2 mM benzamidine. 0.5 μCi [γ-32P]ATP was added and 32P-phosphoprotein formation was measured by adsorption onto phosphocellulose as described previously. Nelson and Alkon, J. Neurochemistry. 1995; 65: 2350-57. For measurements of activation by BR-101 (DCP-LA) and similar compounds, PKC activity was measured in the absence of diacylglycerol and phosphatidylserine, as described by Kanno et al., and PKC δ, ε, η, and were measured in the absence of added EGTA and CaCl2, as described by Kanno et al., J. Lipid Res. 2006; 47: 1146-50. […]
(§2) To determine their PKC isozyme specificity, the new compounds were preincubated with purified PKC for five minutes and the PKC activity was measured radiometrically.

other PKC isoforms = assay: PKC isozyme specificity: other PKC isoforms; format: biochemical; conditions: 10 μM; data not shown
Method: as §1, §2

purified PKC = biological target: T2, purified PKC (Homo sapiens, UniProt Q02156); assay: PKC isozyme specificity: purified PKC preincubated with compound, activity measured radiometrically; format: biochemical; conditions: 10 μM; data not shown
T2 construct: purchased Calbiochem
T2 sequence (Q02156 1-737): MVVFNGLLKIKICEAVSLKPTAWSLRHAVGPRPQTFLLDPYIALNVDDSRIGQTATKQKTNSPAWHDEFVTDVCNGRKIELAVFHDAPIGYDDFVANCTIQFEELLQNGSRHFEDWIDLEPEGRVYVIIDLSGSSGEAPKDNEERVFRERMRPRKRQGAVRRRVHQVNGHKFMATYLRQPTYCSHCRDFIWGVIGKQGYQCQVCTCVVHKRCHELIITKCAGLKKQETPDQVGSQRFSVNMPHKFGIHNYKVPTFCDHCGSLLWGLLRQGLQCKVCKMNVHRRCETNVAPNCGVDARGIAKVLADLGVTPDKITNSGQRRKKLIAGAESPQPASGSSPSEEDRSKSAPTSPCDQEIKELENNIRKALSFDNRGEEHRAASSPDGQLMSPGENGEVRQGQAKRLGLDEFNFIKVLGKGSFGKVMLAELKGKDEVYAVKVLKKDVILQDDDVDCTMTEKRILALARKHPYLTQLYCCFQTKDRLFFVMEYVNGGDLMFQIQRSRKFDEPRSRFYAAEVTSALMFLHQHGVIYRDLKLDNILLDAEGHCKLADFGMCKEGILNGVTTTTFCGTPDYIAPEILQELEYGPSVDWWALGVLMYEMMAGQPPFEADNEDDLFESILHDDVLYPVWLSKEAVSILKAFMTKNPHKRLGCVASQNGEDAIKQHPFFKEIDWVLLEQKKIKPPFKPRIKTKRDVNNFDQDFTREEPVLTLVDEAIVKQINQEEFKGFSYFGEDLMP
Method: Protein Kinase C Assay. Rat hippocampal cells were cultured and scraped in 0.2 ml homogenization buffer (20 mM Tris-HCl, pH 7.4, 50 mM NaF, 1 μg/ml leupeptin, and 0.1 mM PMSF) and homogenized by sonication in a Marsonix micro-probe sonicator (5 sec, 10 W). To measure PKC, 10 μl of cell homogenate or purified PKC isozyme (purchased from Calbiochem) was incubated for 15 min at 37° C. in the presence of 10 μM histones, 4.89 mM CaCl2, 1.2 μg/μl phosphatidyl-L-serine, 0.18 μg/μl 1,2-dioctanoyl-sn-glycerol, 10 mM MgCl2, 20 mM HEPES (pH 7.4), 0.8 mM EDTA, 4 mM EGTA, 4% glycerol, 8 μg/ml aprotinin, 8 μg/ml leupeptin, and 2 mM benzamidine. 0.5 μCi [γ-32P]ATP was added and 32P-phosphoprotein formation was measured by adsorption onto phosphocellulose as described previously. Nelson and Alkon, J. Neurochemistry. 1995; 65: 2350-57. For measurements of activation by BR-101 (DCP-LA) and similar compounds, PKC activity was measured in the absence of diacylglycerol and phosphatidylserine, as described by Kanno et al., and PKC δ, ε, η, and were measured in the absence of added EGTA and CaCl2, as described by Kanno et al., J. Lipid Res. 2006; 47: 1146-50. Low concentrations of Ca2+ are used because high Ca2+ interacts with the PKC phosphatidylserine binding site and prevents activation. For measurements of bryostatin activation, 1,2-diacylglycerol was omitted unless otherwise stated.
as §2

[1] = tested on: Endothelin-converting enzyme (ECE); assay: ECE assay in neuroblastoma cells (fluorimetric, McaBK2); format: cell-based, human; conditions: bryostatin 0.27 nM, BR-101 1 μM, BR-111 1
Method: ECE Assay. SH-5757 neuroblastoma cells were incubated with bryostatin (0.27 nM), BR-101 (DCP-LA) (1 μM), and BR-111 (DHA-CP6) (1 Endothelin-converting enzyme (ECE) was measured fluorimetrically using the method of Johnson and Ahn, Anal. Biochem. 2000; 286: 112-118. A sample of cell homogenate (20 μl) was incubated in 50 mM MES-KOH, pH 6.0, 0.01% C 12E10 (polyoxyethylene-10-lauryl ether), and 15 μM McaBK2 (7-Methoxycoumarin-4-acetyl [Ala7-(2,4-Dinitrophenyl)Lys9]-bradykinin trifluoroacetate salt) (Sigma-Aldrich). After 60 min at 37° C., the reaction was quenched by adding trifluoroacetic acid to 0.5%. The sample was diluted to 1.4 ml with water and the fluorescence was measured at ex=334 nm, em=398 nm.

PKCα = biological target: T3, PKCα (Homo sapiens, UniProt P17252); assay: Protein kinase C assay with recombinant PKC alpha isoform ([γ32P]ATP, histones); format: biochemical; conditions: data not shown
T3 construct: purchased Calbiochem (San Diego, Calif.)
Method: Protein Kinase C Assay. Recombinant PKC (1 ng of alpha or epsilon isoform) was mixed with the BR-101 (DCP-LA) in the presence of 10 micromolar histones, 5 mM CaCl2, 1.2 μg/μl phosphatidyl-L-serine, 0.18 μg/μl 1,2-dioctanoyl-sn-glycerol (DAG), 10 mM MgCl2, 20 mM HEPES (pH 7.4), 0.8 mM EDTA, 4 mM EGTA, 4% glycerol, 8 μg/ml aprotinin, 8 μg/ml leupeptin, and 2 mM benzamidine. 0.5 micro Ci [γ32P]ATP was added. The incubation mixture was incubated for 15 min at 37 degrees in a total volume of 10 microliters. The reaction was stopped by spotting the reaction mixtures on 1×2 cm strips of cellulose phosphate paper (Whatman P81) and immediately washing twice for 1 hr in 0.5% H3PO4. The cellulose phosphate strips were counted in a scintillation counter. In some experiments, phosphatidylserine, diacylglycerol, and/or calcium were removed.

Aß = Aß production in N2a neuroblastoma cells transfected with human APPSwe/PS1D (Aß 1-42 ELISA); format: cell-based, mouse
Method: Aß Measurement and Cell Viability Assay. Aß was measured using an Aß 1-42 human fluorimetric ELISA kit (Invitrogen) according to the manufacturer's instructions. Results were measured in a Biotek Synergy HT microplate reader. AlamarBlue and CyQuant NF (Invitrogen) according to the manufacturer's instructions.
To measure the effects of PKC activation on Aß production, we used mouse neuro2a (N2a) neuroblastoma cells transfected with human APPSwe/PS1D, which produce large quantities of Aβ. Petanceska et al., J. Neurochem. 1996; 74: 1878-84. […] With bryostatin, which activates PKC by binding to the diacylglycerol-binding site, the inhibition was biphasic, with concentrations of 20 nM or higher producing no net effect. This may be explained by the ability of this class of PKC activators to downregulate PKC when used at high concentrations.

PKCδ = biological target: T4, PKCδ (Homo sapiens, UniProt Q05655); assay: PKC isozyme specificity: PKCδ; format: biochemical; conditions: about 1-100 μM; data not shown
T4 construct: purchased Calbiochem
Method: as §1, §2

T4 sequence (Q05655 whole entry): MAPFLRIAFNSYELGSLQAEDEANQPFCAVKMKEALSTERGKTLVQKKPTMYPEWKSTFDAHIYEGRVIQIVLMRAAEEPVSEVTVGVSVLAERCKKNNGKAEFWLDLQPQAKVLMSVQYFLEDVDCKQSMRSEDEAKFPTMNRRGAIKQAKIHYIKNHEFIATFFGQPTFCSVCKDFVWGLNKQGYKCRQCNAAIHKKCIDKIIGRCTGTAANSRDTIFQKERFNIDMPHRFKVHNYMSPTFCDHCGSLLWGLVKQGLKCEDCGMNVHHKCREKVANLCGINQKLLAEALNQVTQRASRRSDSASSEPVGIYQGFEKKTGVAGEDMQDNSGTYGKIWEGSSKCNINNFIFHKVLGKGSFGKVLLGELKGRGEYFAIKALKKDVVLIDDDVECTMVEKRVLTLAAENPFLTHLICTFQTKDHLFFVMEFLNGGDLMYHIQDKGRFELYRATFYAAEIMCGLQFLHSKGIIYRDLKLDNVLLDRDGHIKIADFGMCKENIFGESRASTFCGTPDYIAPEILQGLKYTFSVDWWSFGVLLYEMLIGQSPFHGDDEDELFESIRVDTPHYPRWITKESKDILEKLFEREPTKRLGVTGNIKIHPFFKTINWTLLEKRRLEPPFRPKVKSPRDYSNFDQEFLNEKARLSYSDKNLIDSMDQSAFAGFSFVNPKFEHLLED

CCCCCC1CC1CC1CC1CCCCCCCC(=O)O (centres unmarked) [BR-101, 8-[2-(2-pentyl-cyclopropylmethyl)-cyclopropyl]-octanoic acid]
effect on PKCγ at higher concentrations (PKCγ): activated
effects on the other PKC isoforms (other PKC isoforms): relatively small effects
activation of PKC (purified PKC): effective activator
change in ECE activity [1]: sustained increase
effect on PKCα (PKCα): not affected
levels of both intracellular and secreted Aß (Aß; 24 h incubation, various concentrations): markedly reduced
concentration dependence of Aß inhibition (Aß; concentrations up to 10 to 100 μM, no evidence of downregulation at higher concentrations): monotonically increasing inhibition
effect on PKCδ at higher concentrations (PKCδ): partially inhibited
